Molecules are shown by their SMILES.

For orientation: IC50 means the midpoint of a concentration-inhibition curve.

T1 sequence (P53350 whole entry): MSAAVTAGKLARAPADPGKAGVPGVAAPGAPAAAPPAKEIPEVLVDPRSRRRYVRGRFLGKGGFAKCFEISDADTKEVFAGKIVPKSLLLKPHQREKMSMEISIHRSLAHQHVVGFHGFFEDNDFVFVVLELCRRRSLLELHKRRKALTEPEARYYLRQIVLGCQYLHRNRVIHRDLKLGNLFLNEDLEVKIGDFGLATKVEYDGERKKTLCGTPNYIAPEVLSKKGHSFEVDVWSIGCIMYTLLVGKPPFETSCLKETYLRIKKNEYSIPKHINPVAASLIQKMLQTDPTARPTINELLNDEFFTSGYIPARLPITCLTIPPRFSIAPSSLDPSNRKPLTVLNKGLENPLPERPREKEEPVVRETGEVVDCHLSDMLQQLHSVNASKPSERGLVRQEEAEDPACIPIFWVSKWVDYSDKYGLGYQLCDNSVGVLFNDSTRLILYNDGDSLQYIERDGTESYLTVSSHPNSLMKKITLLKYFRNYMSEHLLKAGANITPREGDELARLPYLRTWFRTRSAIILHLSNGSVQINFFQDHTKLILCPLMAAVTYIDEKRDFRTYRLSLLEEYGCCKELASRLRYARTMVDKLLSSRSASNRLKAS

This assay concerns the target T1, recombinant Plk1 protein (Homo sapiens, UniProt P53350).
T1 construct: histidine tag (N); made in house; host or cells: SF9 insect cells
Put plainly: Plk1 kinase activity inhibition assay (33P-ATP, alpha casein substrate, flash plates). The class given is biochemical. The following applies: enzymatic assay, 100 nM Li-ATP, 80 minutes at 30° C. A digest of the protocol:
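N-terminally His-tagged human Plk1 from SF9 cells (50–100 ng/well) phosphorylated alpha casein (500 ng/well) with 100 nM ATP including 33P-ATP at pH 7.5, with Mg2+ and Mn2+, 80 min at 30 °C. 33P incorporation read on scintillator-coated flash plates; IC50 derived.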
As to `CC(Oc1cc(-n2cnc3cnc(CN4CCN(C)CC4)cc32)sc1C(N)=O)c1ccccc1OC(F)F` (centres unmarked) [Example 99, 3-{1-[2-(difluoromethoxy)phenyl]ethoxy}-5-{6-[(4-methylpiperazin-1-yl)methyl]-1H-imidazo[4,5-c]pyridin-1-yl}thiophene-2-carboxamide], the IC50 was below 10 nM.
As to `CC(Oc1cc(-n2cnc3cnc(CN4CCN(C)CC4)cc32)sc1C(N)=O)c1ccccc1C(F)(F)F` (centres unmarked) [Example 45, 5-{6-[(4-methylpiperazin-1-yl)methyl]-1H-imidazo[4,5-c]pyridin-1-yl}-3-{-1-[2-(trifluoromethyl)phenyl]ethoxy}thiophene-2-carboxamide], the IC50 is below 10 nM.
For `C[C@@H](Oc1cc(-n2cnc3cnc(CN4CCN(C(=O)N(C)C)CC4)cc32)sc1C(N)=O)c1ccccc1C(F)(F)F` [Example 68, 4-{[1-(5-carbamoyl-4-{(1R)-1-[2-(trifluoromethyl)phenyl]ethoxy}-2-thienyl)-1H-imidazo[4,5-c]pyridin-6-yl]methyl}-N,N-dimethylpiperazine-1-carboxamide], the IC50 was below 10 nM.
Take `C[C@@H](Oc1cc(-n2cnc3cnc(CN4CCCN(C)CC4)cc32)sc1C(N)=O)c1ccccc1C(F)(F)F` [Example 164, 5-{6-[(4-methyl-1,4-diazepan-1-yl)methyl]-1H-imidazo[4,5-c]pyridin-1-yl}-3-{(1R)-1-[2-(trifluoromethyl)phenyl]ethoxy}thiophene-2-carboxamide]: the IC50 is below 10 nM.
Then `CCC(Oc1cc(-n2cnc3cnc(CN4CCN(CCN(C)C)CC4)cc32)sc1C(N)=O)c1ccccc1Cl` (centres unmarked) [Example 151, 3-{[1-(2-chlorophenyl)propyl]oxy}-5-[6-({4-[2-(dimethylamino)ethyl]piperazin-1-yl}methyl)-1H-imidazo[4,5-c]pyridin-1-yl]thiophene-2-carboxamide], with 100 to 1000 nM; and `CC(Oc1cc(-n2cnc3ccncc32)sc1C(N)=O)c1ccccc1C(F)(F)F` (centres unmarked) [Example 13, 5-(3H-Imidazo[4,5-c]pyridin-3-yl)-3-{1-[2-(trifluoromethyl)phenyl]ethoxy}thiophene-2-carboxamide], with 10 to 100 nM; and `NC(=O)c1sc(-n2cnc3cnc(CO)cc32)cc1OCc1ccccc1C(F)(F)F` [Example 9, 5-[6-(Hydroxymethyl)-1H-imidazo[4,5-c]pyridin-1-yl]-3-{[2-(trifluoromethyl)benzyl]oxy}thiophene-2-carboxamide], with 10 to 100 nM.
For `C[C@@H](Oc1cc(-n2cnc3cnc(CN4CCN(c5ncccn5)CC4)cc32)sc1C(N)=O)c1ccccc1C(F)(F)F` [Example 77, 5-{6-[(4-pyrimidin-2-ylpiperazin-1-yl)methyl]-1H-imidazo[4,5-c]pyridin-1-yl}-3-{(1R)-1-[2-(trifluoromethyl)phenyl]ethoxy}thiophene-2-carboxamide], the IC50 is 10 to 100 nM.
In the case of `C[C@@H](Oc1cc(-n2cnc3cnc(CNCCO)cc32)sc1C(N)=O)c1ccccc1C(F)(F)F` [Example 104, 5-(6-{[(2-hydroxyethyl)amino]methyl}-1H-imidazo[4,5-c]pyridin-1-yl)-3-{(1R)-1-[2-(trifluoromethyl)phenyl]ethoxy}thiophene-2-carboxamide], the IC50 fell in the range of 10 to 100 nM.
`NC(=O)c1sc(-n2cnc3ccncc32)cc1OCc1ccccc1F` [Example 31, 3-[(2-fluorobenzyl)oxy]-5-(3H-imidazo[4,5-c]pyridin-3-yl)thiophene-2-carboxamide]: the IC50 lay in the range of 10 to 100 nM.
As to `CC1CCN(Cc2cc3c(cn2)ncn3-c2cc(O[C@H](C)c3ccccc3C(F)(F)F)c(C(N)=O)s2)CC1` [Example 93, 5-{6-[(4-methylpiperidin-1-yl)methyl]-1H-imidazo[4,5-c]pyridin-1-yl}-3-{(1R)-1-[2-(trifluoromethyl)phenyl]ethoxy}thiophene-2-carboxamide], the IC50 lay in the range of 10 to 100 nM.
Then `C[C@@H](Oc1cc(-n2cnc3cnc(CN4CCN(CCN(C)C)CC4)cc32)sc1C(N)=O)c1ccccc1Cl` [Example 132, 3-[(1R)-1-(2-chlorophenyl)ethoxy]-5-[6-({4-[2-(dimethylamino)ethyl]piperazin-1-yl}methyl)-1H-imidazo[4,5-c]pyridin-1-yl]thiophene-2-carboxamide], with 10 to 100 nM; and `C[C@@H](Oc1cc(-n2cnc3cnc(CN4CC(O)C4)cc32)sc1C(N)=O)c1ccccc1C(F)(F)F` [Example 96, 5-{6-[(3-hydroxyazetidin-1-yl)methyl]-1H-imidazo[4,5-c]pyridin-1-yl}-3-{(1R)-1-[2-(trifluoromethyl)phenyl]ethoxy}thiophene-2-carboxamide], with below 10 nM.
In the case of `CC(Oc1cc(-n2cnc3cc(CN4CCS(=O)(=O)CC4)ncc32)sc1C(N)=O)c1ccccc1F` (centres unmarked) [Example 161, 5-{6-[(1,1-dioxidothiomorpholin-4-yl)methyl]-3H-imidazo[4,5-c]pyridin-3-yl}-3-[-1-(2-fluorophenyl)ethoxy]thiophene-2-carboxamide], the IC50 fell in the range of 1000 to 10000 nM.
On to `CCN1CCN(Cc2cc3c(cn2)ncn3-c2cc(OC(C)c3ccccc3OC(F)F)c(C(N)=O)s2)CC1` (centres unmarked) [Example 135, 3-{1-[2-(difluoromethoxy)phenyl]ethoxy}-5-{6-[(4-ethylpiperazin-1-yl)methyl]-1H-imidazo[4,5-c]pyridin-1-yl}thiophene-2-carboxamide], for which the IC50 was below 10 nM.
With `CCNCc1cc2c(cn1)ncn2-c1cc(O[C@H](C)c2ccccc2C(F)(F)F)c(C(N)=O)s1` [Example 112, 5-{6-[(ethylamino)methyl]-1H-imidazo[4,5-c]pyridin-1-yl}-3-{(1R)-1-[2-(trifluoromethyl)phenyl]ethoxy}thiophene-2-carboxamide], the IC50 was 10 to 100 nM.
For `C[C@@H](Oc1cc(-n2cnc3cnc(CN4CCN(C(=O)C(F)(F)F)CC4)cc32)sc1C(N)=O)c1ccccc1C(F)(F)F` [Example 159, 5-(6-{[4-(trifluoroacetyl)piperazin-1-yl]methyl}-1H-imidazo[4,5-c]pyridin-1-yl)-3-{(1R)-1-[2-(trifluoromethyl)phenyl]ethoxy}thiophene-2-carboxamide], the IC50 was in the range of 10 to 100 nM.
In the case of `NC(=O)c1sc(-n2cnc3cc(CO)ncc32)cc1OCc1ccccc1C(F)(F)F` [Example 10, 5-[6-(Hydroxymethyl)-3H-imidazo[4,5-c]pyridin-3-yl]-3-{[2-(trifluoromethyl)benzyl]oxy}thiophene-2-carboxamide], the IC50 lay in the range of 100 to 1000 nM.
For the compound `CCN1CCN(Cc2cc3c(cn2)ncn3-c2cc(O[C@H](C)c3ccccc3Cl)c(C(N)=O)s2)CC1` [Example 130, 3-[(1R)-1-(2-chlorophenyl)ethoxy]-5-{6-[(4-ethylpiperazin-1-yl)methyl]-1H-imidazo[4,5-c]pyridin-1-yl}thiophene-2-carboxamide], the IC50 was below 10 nM.
In the case of `C[C@@H](Oc1cc(-n2cnc3cnc(CN4CCNCC4)cc32)sc1C(N)=O)c1ccccc1C(F)(F)F` [Example 92], the IC50 is below 10 nM.
For `CC(Oc1cc(-n2cnc3cc(CO)ncc32)sc1C(N)=O)c1ccccc1F` (centres unmarked) [Example 163, 3-[-1-(2-fluorophenyl)ethoxy]-5-[6-(hydroxymethyl)-3H-imidazo[4,5-c]pyridin-3-yl]thiophene-2-carboxamide], the IC50 lay within 10 to 100 nM.
Then `NC(=O)c1sc(-n2cnc3cnc(CO)cc32)cc1O[C@@H](CO)c1ccccc1Cl` [Example 146, 3-[(1R)-1-(2-chlorophenyl)-2-hydroxyethoxy]-5-[6-(hydroxymethyl)-1H-imidazo[4,5-c]pyridin-1-yl]thiophene-2-carboxamide], with below 10 nM.
`C[C@@H](Oc1cc(-n2cnc3cnc(CNC4CCN(C)CC4)cc32)sc1C(N)=O)c1ccccc1C(F)(F)F` [Example 73, 5-(6-{[(1-methylpiperidin-4-yl)amino]methyl}-1H-imidazo[4,5-c]pyridin-1-yl)-3-{(1R)-1-[2-(trifluoromethyl)phenyl]ethoxy}thiophene-2-carboxamide]: the IC50 is below 10 nM.
Regarding `CN1CCN(Cc2cc3ncn(-c4cc(OCc5ccccc5C(F)(F)F)c(C(N)=O)s4)c3cn2)CC1` [Example 37, 5-{6-[(4-methylpiperazin-1-yl)methyl]-3H-imidazo[4,5-c]pyridin-3-yl}-3-{[2-(trifluoromethyl)benzyl]oxy}thiophene-2-carboxamide], the IC50 is 1000 to 10000 nM.
For `CCN1CCN(Cc2cc3c(cn2)ncn3-c2cc(O[C@H](C)c3ccccc3C(F)(F)F)c(C(N)=O)s2)CC1` [Example 107, 5-{6-[(4-ethylpiperazin-1-yl)methyl]-1H-imidazo[4,5-c]pyridin-1-yl}-3-{(1R)-1-[2-(trifluoromethyl)phenyl]ethoxy}thiophene-2-carboxamide] the value was below 10 nM; for `CC(Oc1cc(-n2cnc3cnc(CO)cc32)sc1C(N)=O)c1ccc(C#N)cc1Cl` (centres unmarked) [Example 123, 3-[1-(2-chloro-4-cyanophenyl)ethoxy]-5-[6-(hydroxymethyl)-1H-imidazo[4,5-c]pyridin-1-yl]thiophene-2-carboxamide], below 10 nM.
Consider `Cc1ccccc1C(C)Oc1cc(-n2cnc3cnc(CO)cc32)sc1C(N)=O` (centres unmarked) [Example 110, 5-[6-(hydroxymethyl)-1H-imidazo[4,5-c]pyridin-1-yl]-3-[1-(2-methylphenyl)ethoxy]thiophene-2-carboxamide], for which the IC50 was below 10 nM.
On to `C[C@@H](Oc1cc(-n2cnc3cnc(CN4CCN(S(C)(=O)=O)CC4)cc32)sc1C(N)=O)c1ccccc1C(F)(F)F` [Example 66, 5-(6-{[4-(methylsulfonyl)piperazin-1-yl]methyl}-1H-imidazo[4,5-c]pyridin-1-yl)-3-{(1R)-1-[2-(trifluoromethyl)phenyl]ethoxy}thiophene-2-carboxamide], for which the IC50 was below 10 nM.
For the compound `COc1cc2c(cn1)ncn2-c1cc(OCc2ccccc2C(F)(F)F)c(C(N)=O)s1` [Example 16, 5-(6-Methoxy-1H-imidazo[4,5-c]pyridin-1-yl)-3-{[2-(trifluoromethyl)benzyl]oxy}thiophene-2-carboxamide], the IC50 lay within 10 to 100 nM.

Source of the values: patent US8273890B2 (4SC AG, priority 2007, dated 2012).
